Legend:
[1] = Elimination profile and organ distribution of NIR-labeled antidotes after i.v. injection; format: in vivo; settings: female BALB/c mice
Source text: FIGS. 1A-1F show the antidotes used in the study. […] The nanocarriers were modified with click groups (DSPE-PEG3400 with MTZ, BSA with TCO, CLIO NW and CLIO with TCO) as described in Methods. […] Crosslinked dextran shell is not visible. Size bar=50 nm. FIGS. 1C-1F show the elimination profile of the antidotes and organ distribution (NIR images). Labels are as follows: k-kidney, s-spleen, Iv-liver, i-intestine, lu-lung, h-heart). DSPE-PEG-MTZ, BSA-TCO and CLIO NW-TCO are long circulating particles, whereas CLIO-TCO are short circulating particles. […] N=3 mice per group.
Female BALB/c mice 6-8 weeks old were used for the experiments and bred in house. In order to determine circulation half-life of NIR-labeled antibodies and antidotes, 2 μL blood were collected at different time points through retroorbital vein or mandibular vein and were applied in duplicates on a 0.22 μm nitrocellulose membrane and scanned at 800 nm using Li-COR Odyssey. The spot integrated density of a 16-bit TIFF image was measured with ImageJ and plotted as a function of time. The fluorescence of dots at initial time point was used as 100%. […] Mean fluorescence was determined from 16-bit images using ImageJ software by subtracting the background, drawing a ROI around the organs, and using a measure function to determine mean gray value. […]

[2] = tested on: IRDye 800CW-labeled IgG; test: Organ distribution of IgG fluorescence in control and antidote-injected groups; format: in vivo, BALB/c mice; settings: 48-72 h after antidote injection
Source text: Graphs show mean gray value of fluorescence scans, images show colored images in 800 nm channel. Organs were scanned in […]; each organ's image corresponds to the bar graph below; representative images are shown. The signal represents both circulating IgG and organ-deposited IgG. Brightness and contrast were adjusted to the same extent in control and treated groups of the same experiment. Due to scanner settings, antibody batch and time when the experiment was terminated, the grey values show differences between experiments. 2-way ANOVA test with multiple comparisons, n=3 mice per group. Means and SD of experimental replicates are shown
Female BALB/c mice 6-8 weeks old were used for the experiments and bred in house. […] The spot integrated density of a 16-bit TIFF image was measured with ImageJ and plotted as a function of time. The fluorescence of dots at initial time point was used as 100%. […] Mean fluorescence was determined from 16-bit images using ImageJ software by subtracting the background, drawing a ROI around the organs, and using a measure function to determine mean gray value.
To study the depletion in the peripheral organs, the main organs were scanned 48-72 h after the antidote injection with Li-COR Odyssey NIR scanner. The mean fluorescence reflects both the deposited IgG and the circulating IgG (either free or antidote-bound). […]

[3] = Size and zeta potential of the antidotes (Zetasizer Nano ZS), particle concentration; format: physicochemical
Source text: Synthesis of CLIO and CLIO NWs: CLIO NWs were synthesized from native 20 kDa dextran (Sigma) whereas CLIO were synthesized from reduced T-10 (10 k Da) dextran (Pharmacosmos). Dextran, Fe (III) chloride and Fe (II) chloride were mixed in DDW and titrated with ammonia using a modified Molday precipitation method. The ratio between dextran and iron salts determined the final size of the nanoparticles. Excess dextran was removed with ultrafiltration and the particles were crosslinked with epichlorohydrin as described. Excess epichlorohydrin was removed with ultrafiltration and particles were aminated by addition of ammonium hydroxide (CLIO NWs) or diaminohexane (CLIO) overnight at 4° C. […] Size and zeta potential were determined using Zetasizer Nano ZS (Malvern Instruments Ltd, Malvern, UK). […] The amino group content was determined by reaction with Cy7-NHS. […] The amount of the reacted dye was determined by the difference in the supernatant fluorescence between the reaction tube and control tube (no particles). The number of amines per nanoparticle was determined to be ˜100,000 per CLIO and CLIO NW.
BSA-TCO size and zeta potential are similar to those of native BSA values reported in literature. Particle concentration of BSA was determined based on Mw of 67 kDa; CLIO and CLIONW concentration was determined as described before. […]

[4] = tested on: IRDye 800CW-labeled IgG; test: In vivo depletion of blood IgG by click-modified antidotes; set-up: species or system BALB/c mice
Protocol: Blood IgG levels were measured at different time points, up to 72 h post injection. […] Black line is “IgG only”, green line is “IgG+antidote”. Time of IgG injection is “0” on the X-axis. The antidotes were injected at different times after IgG injection as marked by red arrows. First blood draw was at 1 h post-IgG injection (100%). The IgG only (control) group was included in every experiment. […] Two tailed t-test, n=3 mice per group.
Female BALB/c mice 6-8 weeks old were used for the experiments and bred in house. In order to determine circulation half-life of NIR-labeled antibodies and antidotes, 2 μL blood were collected at different time points through retroorbital vein or mandibular vein and were applied in duplicates on a 0.22 μm nitrocellulose membrane and scanned at 800 nm using Li-COR Odyssey. The spot integrated density of a 16-bit TIFF image was measured with ImageJ and plotted as a function of time. The fluorescence of dots at initial time point was used as 100%. For organ distribution, mice were euthanized at 48-72 h post injection and the organs were placed in wells on a 12-well plate. Organs were scanned with Li-COR Odyssey at 800 nm. Mean fluorescence was determined from 16-bit images using ImageJ software by subtracting the background, drawing a ROI around the organs, and using a measure function to determine mean gray value.
In order to test the depletion efficiency of the antidotes, female BALB/c mice were injected with 25 μg IRDye 800CW-labeled IgG followed by PBS (control) or the antidote, and the levels of IgG in blood (both antidote-bound and free) were measured at different times post-IgG injection (FIG. 2A). […] To test the ability of DSPE-PEG-MTZ to decrease total blood levels of IgG (both antidote bound and free), mice were injected with IRDye 800CW-IgG-TCO followed 1.5 h later with the lipid (1 mg, 1660-fold molar excess of MTZ groups). […] To test the depletion efficiency of BSA-TCO, we injected mice with 25 μg of IgG-MTZ followed by BSA-TCO at 2 h and 3 h post-IgG injection (500 μg each; ˜400 fold excess of TCO; 92-fold excess of surface-binding capacity). […] In view of the large excess of the injected lipid and BSA over IgG, it is unlikely that insufficient binding capacity is responsible for the observed difference in the depletion efficiency of these antidotes. To further investigate which factors contribute to the depletion efficiency, CLIO-TCO and CLIO NW-TCO were compared that have similar sizes but different blood half-lives (FIGS. 2E, 2F). […] It was also confirmed that CLIO-TCO specifically binds to IgG via click chemistry (FIG. 11B), which confirms that the observed decrease in IgG blood fluorescence was due to depletion.

For “BSA-TCO: bovine serum albumin conjugated with TCO-PEG4-NHS ester; macromolecule-based click antidote”, the “Organ accumulation of the antidote” value ([1]; NIR organ images) was “significant accumulation in the lungs”, the “Elimination half-life (slow phase)” value ([1]; i.v., blood) was 4 h and the “Effect on IgG fluorescence in the liver” value [2] was “increased the liver fluorescence”. For the same substance, the “Effect on IgG fluorescence in the organs” value ([2]; Li-COR 800 nm) was “did not decrease the level of fluorescence in other organs”, the Particles per mg ([3]; BSA based on Mw of 67 kDa) was 9 × 10^12 per mg and the Diameter ([3]; hydrodynamic diameter, intensity-weighted distribution) was 8 nm. The “Decrease in blood level of IgG at 3 h post-IgG injection vs control” value ([4]; 25 μg IgG-MTZ, BSA-TCO 500 μg at 2 h and 3 h, CLIO-TCO 290 μg at 1 h) was 40%, the “Decrease in blood level of IgG at 24 h post IgG injection vs control” value ([4]; 25 μg IgG, DSPE-PEG-MTZ 1 mg, BSA-TCO 2 x 500 μg, CLIO-TCO 290 μg) was 53% and the “Decrease in AUC24 h of blood IgG vs control, 3 injections of antidote” value ([4]; BSA-TCO 500 μg at 1.5, 3, 23 h, CLIO-TCO 150 μg at 2, 3, 4 h post-IgG) was 38%. The “Decrease in AUC24 h of blood IgG vs control” value ([4]; DSPE-PEG-MTZ 1 injection 1 mg, BSA-TCO 2 injections 500 μg each, CLIO-TCO 1 injection 290 μg) was 41%.
